Residues, ends and D or L forms follow the SMILES beside them.
System: Human immunodeficiency virus 1
Assay: Inhibitory activity against interaction between HIV-1 gp120 and CD4
Type: functional

Row | IC50 | Molecule
1 | 50 µM | H-ARQPSFDLQCGF-OH
2 | 1 µM | CC(C)C[C@H](NC(=O)[C@H](CC(=O)O)NC(=O)[C@H](Cc1ccccc1)NC(=O)[C@H](CO)NC(=O)[C@@H]1CCCN1C(=O)[C@H](CCC(N)=O)NC(=O)[C@@H](N)CS)C(=O)N[C@@H](CCC(N)=O)C(=O)N[C@@H](CS)C(=O)O (H-CQPSFDLQC-OH)
3 | 6 µM | H-PSFDLQ-OH
